{"source": "patent US20230167073A1", "about": "(Teijin Pharma Limited, priority 2020, published 2023)"}
{"target": "T1, Human TRPC6 (Homo sapiens, UniProt Q9Y210)", "T1 construct": "expressed in transfected cells", "T1 sequence (Q9Y210 1-931)": "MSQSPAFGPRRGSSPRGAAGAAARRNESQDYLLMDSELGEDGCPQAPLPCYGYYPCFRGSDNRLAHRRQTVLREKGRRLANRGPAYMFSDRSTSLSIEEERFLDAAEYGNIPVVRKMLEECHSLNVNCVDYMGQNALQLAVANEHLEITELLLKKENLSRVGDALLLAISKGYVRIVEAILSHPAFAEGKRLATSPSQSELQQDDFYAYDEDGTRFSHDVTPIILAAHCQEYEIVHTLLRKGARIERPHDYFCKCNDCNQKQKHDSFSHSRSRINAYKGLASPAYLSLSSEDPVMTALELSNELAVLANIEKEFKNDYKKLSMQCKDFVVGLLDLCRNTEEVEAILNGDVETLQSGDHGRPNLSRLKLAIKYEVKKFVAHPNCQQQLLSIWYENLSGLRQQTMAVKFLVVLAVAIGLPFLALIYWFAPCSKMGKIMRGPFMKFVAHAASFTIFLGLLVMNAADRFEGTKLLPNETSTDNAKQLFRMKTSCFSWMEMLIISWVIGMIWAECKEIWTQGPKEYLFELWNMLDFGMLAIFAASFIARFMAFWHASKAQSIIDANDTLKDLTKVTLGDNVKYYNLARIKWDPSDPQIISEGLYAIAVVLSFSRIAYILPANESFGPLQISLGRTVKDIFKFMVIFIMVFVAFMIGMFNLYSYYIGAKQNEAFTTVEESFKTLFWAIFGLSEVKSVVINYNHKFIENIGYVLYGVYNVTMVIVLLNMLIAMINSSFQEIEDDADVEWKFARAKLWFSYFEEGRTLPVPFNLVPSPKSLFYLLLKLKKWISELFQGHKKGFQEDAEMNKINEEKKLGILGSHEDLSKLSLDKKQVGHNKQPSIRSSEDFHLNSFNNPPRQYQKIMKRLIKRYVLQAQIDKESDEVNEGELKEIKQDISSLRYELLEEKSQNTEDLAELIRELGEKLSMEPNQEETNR", "assay": "Evaluation of TRPC6 channel inhibitory activity (2), HEK293 cells with stably introduced human TRPC6, OAG stimulation, FLIPR tetra (Compound Nos. 1293 to 1405)", "assay_type": "cell-based", "settings": "HEK293 cells with stably introduced human TRPC6, OAG 50 μM/0.5% DMSO, read-out: Inhibitory activity (pIC50 class) (converted)", "method": "Evaluation of TRPC6 Channel Inhibitory Activity (2) (Compound Nos. 1293 to 1405)\nThe activity of the TRPC6 inhibitor was measured by stimulating HEK293 cells, in which human TRPC6 was stably introduced, with OAG (1-Oleoyl-2-acetyl-sn-glycerol, Miliipore Sigma, 06754), using the FLIPR tetra system. The cells were proliferated in a humid environment at 37° C. 5% CO2 using a growth medium (DMEM (Dulbecco's Modified Eagle's Medium) high glucose containing 10% fetal bovine serum, 1×PSGlu (penicillin-streptomycin glutamine), 1×NEAA (Non-essential amino acid), sodium pyruvate and 200 μg/mL hyglomycin. For cell subculture, the cells were proliferated to 70-90% confluence, and gently washed twice with PBS (phosphate-buffered saline) free of calcium and magnesium after removing the medium. Then, the cells were incubated at 37° C. for 5 minutes after adding trypsin (3 mL), peeled off by tapping the flask at the base of the hand, 7 mL of growth medium was added to inactivate trypsin, and then the cells were resuspended. Usually, the cells were separated every 2-3 days to become a cell density of ⅕. The day before evaluation, the cells were seeded in a poly-D-lysine (PDL) coated 384-well plate using a multi-channel pipette or multidrop at a cell density of 1.0-1.5×10^4 cells/25 μL/well. After culturing overnight in a PDL-coated 384 Blackwell plate, a fluorescent dye buffer was added first to the cells and the cells were cultured at room temperature for 90-120 minutes. For preparing 10 mL of fluorescent dye buffer, 9 mL of assay buffer, 1 mL of 10×PBX signal enhancer, and 10 μL of calcium indicator were mixed. Cells treated with the compounds of each level 25 minutes before the stimulation with OAG of TRPC6 agonist were incubated. OAG solution was prepared by adding OAG to assay buffer (Ca ringer solution base: 10 mM HEPES (4-(2-hydroxyethyl)-1-piperazine-ethanesulfonic acid), 4 mM MgCl2, 120 mM NaCl, 5 mM KCl, pH=7.2 (25° C.)+0.1% BSA+2 mM CaCl2)) to give an OAG concentration of 0.2 mM/2% DMSO. The final concentration of OAG added to the cells is 50 μM/0.5% DMSO. A volume of 12.5 μL of OAG solution was added, and activation of TRPC6 channel was measured using the FLIPR tetra system assaying the change in intracellular calcium level as an index. The 180 seconds imaging frame was defined as the background signal, and the subtraction of the background signal from the raw data was used as the fluorescence peak signal. Each fluorescence peak signal is standardized using an OAG-induced signal and buffer-induced signal as 100% and 0%, respectively. The inhibition rate obtained by plotting the peak signal after the addition of the compounds of each level was analyzed by a four-parameter logistic regression to quantify the inhibition rate in the logarithm of the inverse of the effective concentration which gives a 50% inhibition rate (pIC50). The intensity was expressed by the above-mentioned symbols (+, ++, +++).", "units": {"IC50": "nM"}}
{"smiles": "Cn1nc(-c2ccccn2)cc1Oc1cc(C#N)ccc1-c1ncc(C(F)(F)CN)cn1", "note": "[compound 1318, 4-[5-(2-amino-1,1-difluoroethyl)pyrimidin-2-yl]-3-(2-methyl-5-pyridin-2-ylpyrazol-3-yl)oxybenzonitrile]", "IC50": "10 to 1000"}
{"smiles": "Cc1cc(Oc2cc(C#N)ccc2-c2ncc(C(F)(F)CN)cn2)cc(N2CCOCC2)n1", "note": "[compound 1319, 4-[5-(2-amino-1,1-difluoroethyl)pyrimidin-2-yl]-3-(2-methyl-6-morpholin-4-ylpyridin-4-yl)oxybenzonitrile]", "IC50": "10 to 1000"}
{"smiles": "Cc1cc(Oc2cc(Cl)ccc2-c2ccc(CN)cn2)cc(N2CCOCC2)n1", "note": "[compound 1321, [6-[4-chloro-2-(2-methyl-6-morpholin-4-ylpyridin-4-yl)oxyphenyl]pyridin-3-yl]methanamine]", "IC50": "10 to 1000"}
{"smiles": "Cn1nc(-c2ccccn2)cc1Oc1cc(Cl)ccc1-c1ncc(CCN)cn1", "note": "[compound 1322, 2-[2-[4-chloro-2-(2-methyl-5-pyridin-2-ylpyrazol-3-yl)oxyphenyl]pyrimidin-5-yl]ethanamine]", "IC50": "< 10"}
{"smiles": "Cn1nc(-c2ccccn2)cc1Oc1cc(Cl)ccc1-c1ncc(CN)cn1", "note": "[compound 1323, [2-[4-chloro-2-(2-methyl-5-pyridin-2-ylpyrazol-3-yl)oxyphenyl]pyrimidin-5-yl]methanamine]", "IC50": "< 10"}
{"smiles": "Cn1nc(-c2ccccn2)cc1Oc1cc(Cl)ccc1-c1ncc([C@H](F)CN)cn1", "note": "[compound 1324, (2S)-2-[2-[4-chloro-2-(2-methyl-5-pyridin-2-ylpyrazol-3 yl)oxyphenyl]pyrimidin-5-yl]-2-fluoroethanamine]", "IC50": "< 10"}
{"smiles": "Cn1nc(-c2ccccn2)cc1Oc1cc(Cl)ccc1-c1ncc([C@@H](F)CN)cn1", "note": "[compound 1325, (2R)-2-[2-[4-chloro-2-(2-methyl-5-pyridin-2-ylpyrazol-3-yl)oxyphenyl]pyrimidin-5-yl]-2-fluoroethanamine]", "IC50": "< 10"}
{"smiles": "Cn1nc(-c2ccccn2)cc1Oc1cc(C#N)ccc1-c1ccc(CN)nn1", "note": "[compound 1326, 4-[6-(aminomethyl)pyridazin-3-yl]-3-(2-methyl-5-pyridin-2-ylpyrazol-3-yl)oxybenzonitrile]", "IC50": "10 to 1000"}
{"smiles": "COc1nc(-c2ccc(C#N)cc2Oc2cc(-c3ccccn3)nn2C)ncc1[C@@H](O)CN", "note": "[compound 1327, 4-[5-[(1R)-2-amino-1-hydroxyethyl]-4-methoxypyrimidin-2-yl]-3-(2-methyl-5-pyridin-2-ylpyrazol-3-yl)oxybenzonitrile]", "IC50": "10 to 1000"}
{"smiles": "COc1nc(-c2ccc(C#N)cc2Oc2cc(-c3ccccn3)nn2C)ncc1[C@H](O)CN", "note": "[compound 1328, 4-[5-[(1S)-2-amino-1-hydroxyethyl]-4-methoxypyrimidin-2-yl]-3-(2-methyl-5-pyridin-2-ylpyrazol-3-yl)oxybenzonitrile]", "IC50": "10 to 1000"}
{"smiles": "Cc1cc(Oc2nc(Cl)ccc2-c2ccc(CCN)cc2)cc(N2CCOCC2)n1", "note": "[compound 1329, 2-[4-[6-chloro-2-(2-methyl-6-morpholin-4-ylpyridin-4-yl)oxypyridin-3-yl]phenyl]ethanamine]", "IC50": "> 1000"}
{"smiles": "Cn1nc([C@H]2CCCOC2)cc1Oc1cc(C#N)ccc1-c1ccc(CN)cn1", "note": "[compound 1330, 4-[5-(aminomethyl)pyridin-2-yl]-3-[2-methyl-5-[(3R)-oxan-3-yl]pyrazol-3-yl]oxybenzonitrile]", "IC50": "< 10"}
{"smiles": "Cn1nc(-c2ccccn2)cc1Oc1cc(C#N)cnc1-c1ccc(CCN)cc1", "note": "[compound 1331, 6-[4-(2-aminoethyl)phenyl]-5-(2-methyl-5-pyridin-2-ylpyrazol-3-yl)oxypyridine-3-carbonitrile]", "IC50": "> 1000"}
{"smiles": "Cn1nc(-c2ccccn2)cc1Oc1cc(Cl)ncc1-c1ccc(CCN)cc1", "note": "[compound 1332, 2-[4-[6-chloro-4-(2-methyl-5-pyridin-2-ylpyrazol-3-yl)oxypyridin-3-yl]phenyl]ethanamine]", "IC50": "> 1000"}
{"smiles": "Cn1nc(-c2ccccn2)cc1Oc1cc(C#N)ccc1-c1nc(Cl)ccc1CN", "note": "[compound 1333, 4-[3-(aminomethyl)-6-chloropyridin-2-yl]-3-(2-methyl-5-pyridin-2-ylpyrazol-3-yl)oxybenzonitrile]", "IC50": "10 to 1000"}
{"smiles": "Cn1nc(-c2ccccn2)cc1Oc1cc(C#N)ccc1-c1ccc(CN)c(Cl)n1", "note": "[compound 1334, 4-[5-(aminomethyl)-6-chloropyridin-2-yl]-3-(2-methyl-5-pyridin-2-ylpyrazol-3-yl)oxybenzonitrile]", "IC50": "< 10"}
{"smiles": "Cn1nc(-c2ccccn2)cc1Oc1cc(F)ccc1-c1ncc([C@H](F)CN)cn1", "note": "[compound 1335, (2S)-2-fluoro-2-[2-[4-fluoro-2-(2-methyl-5-pyridin-2-ylpyrazol-3-yl)oxyphenyl]pyrimidin-5-yl]ethanamine]", "IC50": "< 10"}
{"smiles": "Cc1cc(Oc2cc(Cl)ccc2-c2ncc([C@@H](F)CN)cn2)cc(N2CCOCC2)n1", "note": "[compound 1336, (2R)-2-[2-[4-chloro-2-(2-methyl-6-morpholin-4-ylpyridin-4-yl)oxyphenyl]pyrimidin-5-yl]-2-fluoroethanamine]", "IC50": "10 to 1000"}
{"smiles": "Cc1cc(Oc2cc(Cl)ccc2-c2ncc([C@H](F)CN)cn2)cc(N2CCOCC2)n1", "note": "[compound 1337, (2S)-2-[2-[4-chloro-2-(2-methyl-6-morpholin-4-ylpyridin-4-yl)oxyphenyl]pyrimidin-5-yl]-2-fluoroethanamine]", "IC50": "< 10"}
{"smiles": "Cn1nc(-c2ccccn2)cc1Oc1cc(Cl)ccc1-c1ccc([C@H](F)CN)cn1", "note": "[compound 1338, (2S)-2-[6-[4-chloro-2-(2-methyl-5-pyridin-2-ylpyrazol-3-yl)oxyphenyl]pyridin-3-yl]-2-fluoroethanamine]", "IC50": "< 10"}
{"smiles": "Cn1nc(-c2ccccn2)cc1Oc1cc(Cl)ccc1-c1ccc([C@@H](F)CN)cn1", "note": "[compound 1339, (2R)-2-[6-[4-chloro-2-(2-methyl-5-pyridin-2-ylpyrazol-3-yl)oxyphenyl]pyridin-3-yl]-2-fluoroethanamine]", "IC50": "< 10"}
{"smiles": "Cn1nc(-c2ccccn2)cc1Oc1cc(Cl)ccc1-c1ccc(CN)cn1", "note": "[compound 1340, [6-[4-chloro-2-(2-methyl-5-pyridin-2-ylpyrazol-3-yl)oxyphenyl]pyridin-3-yl]methanamine]", "IC50": "< 10"}
{"smiles": "Cn1nc(-c2ccccn2)cc1Oc1cc(F)ccc1-c1ncc(CN)cn1", "note": "[compound 1341, [2-[4-fluoro-2-(2-methyl-5-pyridin-2-ylpyrazol-3-yl)oxyphenyl]pyrimidin-5-yl]methanamine]", "IC50": "10 to 1000"}
{"smiles": "Cn1nc(-c2ccccn2)cc1Oc1cc(F)ccc1-c1ncc([C@@H](F)CN)cn1", "note": "[compound 1342, (2R)-2-fluoro-2-[2-[4-fluoro-2-(2-methyl-5-pyridin-2-ylpyrazol-3-yl)oxyphenyl]pyrimidin-5-yl]ethanamine]", "IC50": "10 to 1000"}
